# Measurements as given in article PMC9496563, “Functional Evaluation and Nephrotoxicity Assessment of Human Renal Proximal Tubule Cells on a Chip” (Biosensors, 2022).
# Read-outs that look alike come from different tables or passages of the source.
# Tests used:
# HK2 cells [1] = assay: Active absorption (Papp) through HK2 model on the iBAC; assay type: in vitro ADME, human; conditions: day 4
# Description: (§1) After the microdevice was assembled, it was exposed to ultraviolet light for 30 min. The porous membrane was coated with collagen type I hydrogel at 37 °C for 2 h. The hRPTECs or HK2 cells (2 × 10^5 cells/ cm^2) were seeded on the lower microfluidic channel and incubated upside down at 37 °C for 2 h, allowing the seeded hRPTECs or HK2 cells to attach to the porous membrane surface. Then, 100 μL of the culture medium was added to each chamber and the device was placed on the iBAC Rocker (MR100110, Daxiang biotech, Beijing, China) for dynamic culture.
# (§2) After two hours of dynamic absorption, the sample concentrations of FITC-albumin (Ex = 495 nm, Em = 535 nm), ASP+ (Ex = 474 nm, Em = 606 nm) and 5−CF (Ex = 490 nm, Em = 515 nm) were detected by using a microplate reader (BMG Labtech, Germany).
# (§3) The Papp was calculated using the equation below:Papp [cm/s] = (1/AC0)(dQ/dt) where A = area of mass transfer, C0 = donor concentration of reagent in the upper medium, and dQ/dt = transmembrane transportation rate.
# hRPTECs [2] = assay: Active absorption (Papp) through hRPTECs on the iBAC; assay type: in vitro ADME, human; conditions: for Papp value: hRPTECs on the iBAC, day 4, two hours of dynamic absorption, FITC-albumin (Megalin/Cubilin), ASP+ (OCT2), 5-CF (OAT1)
# Description: as §1, §2, §3
# hRPTECs [3] = assay: Active absorption (Papp) through hRPTECs on the static Transwell; assay type: in vitro ADME, human; conditions: day 4
# Description: as §2, §3
# BCRP [4] = target: T1, BCRP (Homo sapiens, UniProt Q9UNQ0); assay: BCRP efflux function (DiOC2 with or without Ko143), HK2 model on the iBAC; assay type: in vitro ADME; conditions: without inhibitor
# T1 sequence (Q9UNQ0 1-655): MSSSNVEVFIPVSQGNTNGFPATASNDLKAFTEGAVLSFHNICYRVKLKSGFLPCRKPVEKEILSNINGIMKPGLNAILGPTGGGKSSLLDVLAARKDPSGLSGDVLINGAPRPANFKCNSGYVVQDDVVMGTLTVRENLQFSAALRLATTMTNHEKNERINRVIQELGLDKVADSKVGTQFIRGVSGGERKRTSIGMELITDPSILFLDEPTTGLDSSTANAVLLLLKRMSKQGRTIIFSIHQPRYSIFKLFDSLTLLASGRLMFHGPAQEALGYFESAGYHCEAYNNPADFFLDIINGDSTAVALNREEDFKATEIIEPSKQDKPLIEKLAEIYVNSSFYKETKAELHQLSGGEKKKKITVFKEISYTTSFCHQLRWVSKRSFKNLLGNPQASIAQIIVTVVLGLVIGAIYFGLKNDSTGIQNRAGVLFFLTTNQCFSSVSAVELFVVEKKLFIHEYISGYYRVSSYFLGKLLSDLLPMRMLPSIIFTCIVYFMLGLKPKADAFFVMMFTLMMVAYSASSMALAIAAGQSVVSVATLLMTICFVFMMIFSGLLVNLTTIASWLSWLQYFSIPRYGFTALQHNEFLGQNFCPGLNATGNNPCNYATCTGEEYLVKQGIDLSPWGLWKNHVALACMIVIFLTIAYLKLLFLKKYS
# Description: as §3
# BCRP [5] = target: T1, BCRP; assay: BCRP efflux function (DiOC2 with or without Ko143), hRPTECs on the iBAC; assay type: in vitro ADME
# Description: as §3
# HK2 cells [6] = assay: LDH release from HK2 cells on the iBAC; assay type: cell-based, human; conditions: 24 h
# Description: as §1
# (§4) The Live/Dead kit (Thermo Fisher, Waltham, MA, USA), LDH kit (Life Technologies, Paisley, UK) and CellTiter-Glo (Promega, Madison, WI, USA) were used to evaluate cell viability on the iBAC. These assays were performed on test compound-treated monolayers following the manufacturer’s instructions. The assay protocols are described briefly here. In the live/dead cell assay, the cells were incubated with the live/dead cell imaging reagents for 15–30 min at 37 °C and observed under a fluorescent microscope. […] In the CellTiter-Glo luminescent cell viability assay, the cells were incubated with the CellTiter-Glo reagents for 30 min at room temperature and detected with a microplate reader. […] The absorbance was then taken at 490 nm and 680 nm using a microplate reader (BMG Labtech, Germany).
# hRPTECs [7] = assay type: cell-based, human; conditions: hRPTECs on the iBAC, 24 h
# Description: as §1, §4
# HK2 cells [8] = assay: cells; assay type: cell-based; conditions: HK2 cells on the iBAC, 48 h; for IC50: Homo sapiens, HK-2, apical side, read-out: IC50 (cell viability)
# Description: as §1
# (§5) The Live/Dead kit (Thermo Fisher, Waltham, MA, USA), LDH kit (Life Technologies, Paisley, UK) and CellTiter-Glo (Promega, Madison, WI, USA) were used to evaluate cell viability on the iBAC. These assays were performed on test compound-treated monolayers following the manufacturer’s instructions. The assay protocols are described briefly here. In the live/dead cell assay, the cells were incubated with the live/dead cell imaging reagents for 15–30 min at 37 °C and observed under a fluorescent microscope. The viable cells were stained green, while the dead ones were stained red. In the CellTiter-Glo luminescent cell viability assay, the cells were incubated with the CellTiter-Glo reagents for 30 min at room temperature and detected with a microplate reader. For the LDH assay, 50 μL of medium from each well of the treatment plates was transferred into fresh 96-well plates and an equal volume of LDH reaction mixture was added. The samples were incubated at room temperature for 30 min before the reaction was stopped by adding 50 μL of stop solution. The absorbance was then taken at 490 nm and 680 nm using a microplate reader (BMG Labtech, Germany).
# hRPTECs [9] = assay type: cell-based
# Description: as §1, §5
# P-gp [10] = target: T2, P-gp (Homo sapiens, UniProt P08183); assay: P-gp efflux function (rhodamine 123 with or without verapamil), hRPTECs on the iBAC; conditions: hRPTECs model, without inhibitor
# T2 sequence (P08183 whole entry): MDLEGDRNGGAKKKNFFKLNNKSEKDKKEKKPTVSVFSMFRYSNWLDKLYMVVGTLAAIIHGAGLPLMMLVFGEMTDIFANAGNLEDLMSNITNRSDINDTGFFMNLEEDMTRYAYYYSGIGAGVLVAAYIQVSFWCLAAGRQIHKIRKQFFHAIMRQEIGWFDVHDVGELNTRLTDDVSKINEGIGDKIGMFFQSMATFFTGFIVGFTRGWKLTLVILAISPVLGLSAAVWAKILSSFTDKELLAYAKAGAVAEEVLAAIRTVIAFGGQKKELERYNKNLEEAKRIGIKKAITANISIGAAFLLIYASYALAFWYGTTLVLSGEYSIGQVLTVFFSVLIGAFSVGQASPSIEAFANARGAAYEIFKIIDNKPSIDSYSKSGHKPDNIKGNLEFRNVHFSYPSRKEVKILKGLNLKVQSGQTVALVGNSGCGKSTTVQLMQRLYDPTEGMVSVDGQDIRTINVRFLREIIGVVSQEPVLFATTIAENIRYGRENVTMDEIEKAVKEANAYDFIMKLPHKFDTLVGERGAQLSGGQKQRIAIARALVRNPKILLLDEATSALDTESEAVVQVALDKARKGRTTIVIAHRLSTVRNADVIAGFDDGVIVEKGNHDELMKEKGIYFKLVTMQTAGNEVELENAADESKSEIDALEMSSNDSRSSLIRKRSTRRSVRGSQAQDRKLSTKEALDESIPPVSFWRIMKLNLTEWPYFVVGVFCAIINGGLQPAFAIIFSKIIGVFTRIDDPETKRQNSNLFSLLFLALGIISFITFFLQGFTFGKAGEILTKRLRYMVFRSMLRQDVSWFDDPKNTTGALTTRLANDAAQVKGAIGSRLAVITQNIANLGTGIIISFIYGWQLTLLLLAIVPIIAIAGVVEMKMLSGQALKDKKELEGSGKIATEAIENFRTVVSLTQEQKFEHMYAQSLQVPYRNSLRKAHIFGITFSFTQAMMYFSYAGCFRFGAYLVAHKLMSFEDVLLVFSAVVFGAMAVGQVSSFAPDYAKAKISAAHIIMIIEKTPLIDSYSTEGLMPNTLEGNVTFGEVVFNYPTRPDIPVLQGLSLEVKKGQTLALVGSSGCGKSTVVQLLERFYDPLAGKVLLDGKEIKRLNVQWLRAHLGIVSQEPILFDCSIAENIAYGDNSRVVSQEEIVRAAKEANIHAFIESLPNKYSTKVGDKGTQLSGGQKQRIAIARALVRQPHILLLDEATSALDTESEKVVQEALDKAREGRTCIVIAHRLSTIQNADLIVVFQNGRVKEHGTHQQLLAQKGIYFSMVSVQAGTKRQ
# P-gp [11] = target: T2, P-gp; assay: P-gp efflux function (rhodamine 123 with or without verapamil), HK2 model on the iBAC; conditions: without inhibitor
# P-gp [12] = target: T2, P-gp; assay: in vitro
compound,measurement,setting,value
5(6)-Carboxyfluorescein [5−CF],Papp value,HK2 cells [1],0.009 ×10⁻⁶ cm/s
same,Papp value,hRPTECs [2],0.039 ×10⁻⁶ cm/s
same,Papp value,hRPTECs [3],0.002 ×10⁻⁶ cm/s
"CN(C)c1ccc(/C=C/c2cc[n+](C)cc2)cc1.[I-] [ASP+, 4-Di-1-ASP]",Papp value,HK2 cells [1],2.3 ×10⁻⁶ cm/s
same,Papp value,hRPTECs [2],9.2 ×10⁻⁶ cm/s
same,"Papp value, iBAC compared with Transwell","hRPTECs [2]; hRPTECs, day 4",significantly higher than that on the Transwell
CCN1/C(=C/C=C/c2oc3ccccc3[n+]2CC)Oc2ccccc21.[I-] [DiOC2],Cumulative amount of substrate in cells,BCRP [4],very low
same,Cumulative amount of substrate in cells,"BCRP [5]; hRPTECs model, without inhibitor",very low
same,Papp value of DiOC2 without Ko143,"BCRP [5]; hRPTECs on the iBAC, DiOC2 10 μM",4.6 ×10⁻⁶ cm/s
same,Papp value of DiOC2 with Ko143,"BCRP [5]; hRPTECs on the iBAC, DiOC2 10 μM, Ko143 10 μM",4.1 ×10⁻⁶ cm/s
"CN/C(=N/CCSCc1nc[nH]c1C)NC#N [cimetidine, Cimetidine]",Relative LDH release with cisplatin in the presence of the cimetidine,HK2 cells [6],109%
same,Relative LDH release with cisplatin in the presence of the cimetidine,hRPTECs [7],93%
COc1cccc2c1C(=O)c1c(O)c3c(c(O)c1C2=O)C[C@@](O)(C(=O)CO)C[C@@H]3O[C@H]1C[C@H](N)[C@H](O)[C@H](C)O1 [doxorubicin],IC50,HK2 cells [8],14.2 µM
same,Toxicity on the apical side (cell viability),hRPTECs [9],induced toxicity
same,Toxicity on the basal side (cell viability),hRPTECs [9],only induced nephrotoxicity on the apical side dosing
"COC(=O)c1ccccc1-c1c2ccc(=N)cc-2oc2cc(N)ccc12 [rhodamine 123, Rhodamine 123]",Cumulative amount of substrate in cells,P-gp [10],very low
same,Cumulative amount of substrate in cells,P-gp [11],very low
same,"Papp at 2 h, 2 μM",P-gp [12],13 ×10⁻⁶ cm/s
CCN(CC)CCNC(=O)c1c(C)[nH]c(/C=C2\C(=O)Nc3ccc(F)cc32)c1C [sunitinib],IC50,HK2 cells [8],29 µM
same,Toxicity on the apical side (cell viability),hRPTECs [9],induced toxicity
same,Toxicity on the basal side (cell viability),hRPTECs [9],only induced nephrotoxicity on the apical side dosing
polymyxin B,Toxicity on both sides (cell viability),HK2 cells [8]; apical and basal administration,not toxic
same,Toxicity on the apical side (cell viability),"hRPTECs [9]; hRPTECs on the iBAC, apical administration, 48 h",induced toxicity
same,Toxicity on the basal side (cell viability),"hRPTECs [9]; hRPTECs on the iBAC, basal administration, 48 h",induced toxicity
